{
  "source": "the supplement of paper PMC4862054",
  "data": [
    {"test_system": "CAL-120", "assay": "normalised response (% of control), CellTiter-Glo; higher = more viable cells (100 = DMSO, 0 = benzethonium chloride kill control)", "details": "incubation time: 72 h", "summary_of_the_method": "(§1)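 Normalised signals at single concentrations make up the values. They come from breast cancer cell lines seeded (20 µl suspension) into 384-well plates with compound at 5 concentrations in 10-fold steps over a compound-specific 10,000-fold range, incubated 72 h, and read for CellTox Green fluorescence then CellTiter-Glo luminescence. Each plate was normalised to 0.1 % DMSO (100) and a positive kill control (0).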", "units": {"normalised response": "%"}, "values": [
      {"smiles": "O=C(Cc1ccc(-c2ccc(OCCN3CCOCC3)cc2)cn1)NCc1ccccc1", "note": "[KX2-391] (1 nM)", "normalised response": 97.2},
      {"smiles": "O=C(/C=C/c1cccnc1)NCCCCC1CCN(C(=O)c2ccccc2)CC1", "note": "[Daporinad] (0.1 nM)", "normalised response": 101},
      {"smiles": "O=C(O)C(=O)O.[NH-][C@@H]1CCCC[C@H]1[NH-].[Pt+2]", "note": "[Oxaliplatin] (1 nM)", "normalised response": 98.5},
      {"smiles": "CC(=O)Nc1cccc(-n2c(=O)n(C3CC3)c(=O)c3c(Nc4ccc(I)cc4F)n(C)c(=O)c(C)c32)c1", "note": "[Trametinib] (0.025 nM)", "normalised response": 106},
      {"smiles": "O=C(O)C1(C(=O)O)CCC1.[NH2-].[NH2-].[Pt+2]", "note": "[Carboplatin] (1 nM)", "normalised response": 97},
      {"smiles": "C[C@H]1C[C@@H]2[C@H]([C@@H](O)C[C@@]3(C)[C@H]2CC[C@]3(O)C(=O)CO)[C@@]2(C)C=CC(=O)C=C12", "note": "[Methylprednisolone] (1 nM)", "normalised response": 103},
      {"smiles": "CC[C@H](C)C(=O)O[C@H]1C[C@H](O)C=C2C=C[C@H](C)[C@H](CC[C@@H](O)C[C@@H](O)CC(=O)O)[C@H]21", "note": "[Pravastatin] (10 nM)", "normalised response": 105},
      {"smiles": "O=C(Cc1ccc(-c2ccc(OCCN3CCOCC3)cc2)cn1)NCc1ccccc1", "note": "[KX2-391] (10 nM)", "normalised response": 101}
    ]},
    {"test_system": "HCC1143", "assay": "normalised response (% of control), CellTiter-Glo; higher = more viable cells (100 = DMSO, 0 = benzethonium chloride kill control)", "details": "incubation time: 72 h", "summary_of_the_method": "as §1", "units": {"normalised response": "%"}, "values": [
      {"smiles": "Nc1nc(F)nc2c1ncn2[C@@H]1O[C@H](CO)[C@@H](O)[C@@H]1O", "note": "[Fludarabine] (1 nM)", "normalised response": 110},
      {"smiles": "CC[C@@H]1C(=O)N(C)c2cnc(Nc3ccc(C(=O)NC4CCN(C)CC4)cc3OC)nc2N1C1CCCC1", "note": "[BI 2536] (0.1 nM)", "normalised response": 94.9},
      {"smiles": "Nc1ncn([C@H]2C[C@H](O)[C@@H](CO)O2)c(=O)n1", "note": "[Decitabine] (1 nM)", "normalised response": 90.8},
      {"smiles": "CC1=C(/C=C/C(C)=C/C=C/C(C)=C/C(=O)O)C(C)(C)CCC1", "note": "[Tretinoin] (1 nM)", "normalised response": 99.5},
      {"smiles": "COc1cc([C@@H]2c3cc4c(cc3[C@@H](O[C@@H]3O[C@@H]5CO[C@@H](c6cccs6)O[C@H]5[C@H](O)[C@H]3O)[C@H]3COC(=O)[C@H]23)OCO4)cc(OC)c1O", "note": "[Teniposide] (1 nM)", "normalised response": 100},
      {"smiles": "CCN(CC)CCCC(C)Nc1c2ccc(Cl)cc2nc2ccc(OC)cc12", "note": "(stereo not drawn) [Mepacrine] (50 nM)", "normalised response": 98},
      {"smiles": "O=C(/C=C/c1cccnc1)NCCCCC1CCN(C(=O)c2ccccc2)CC1", "note": "[Daporinad] (1 nM)", "normalised response": 106},
      {"smiles": "Nc1nc2[nH]cc(CCc3ccc(C(=O)N[C@@H](CCC(=O)O)C(=O)O)cc3)c2c(=O)[nH]1", "note": "[Pemetrexed] (10 nM)", "normalised response": 106},
      {"smiles": "CC[C@H](Nc1ncnc2[nH]cnc12)c1nc2cccc(F)c2c(=O)n1-c1ccccc1", "note": "[GS-1101] (10 nM)", "normalised response": 93.2},
      {"smiles": "Cc1cnc(NC(=O)Nc2cc(Br)c(C)cc2OC[C@@H]2CNCCO2)cn1", "note": "[Rabusertib] (0.1 nM)", "normalised response": 103},
      {"smiles": "CNC(=O)c1cc(Oc2ccc(NC(=O)Nc3cc(C(C)(C)C)nn3-c3ccc4ncccc4c3)c(F)c2)ccn1", "note": "[Rebastinib] (1 nM)", "normalised response": 104},
      {"smiles": "CCc1cncnc1N1CCN(Cc2nc3ccc(C(F)(F)F)cc3[nH]2)CC1", "note": "(1 nM)", "normalised response": 99.5},
      {"smiles": "O=C(Cc1ccc(-c2ccc(OCCN3CCOCC3)cc2)cn1)NCc1ccccc1", "note": "[KX2-391] (1 nM)", "normalised response": 105},
      {"smiles": "O=C(/C=C/c1cccnc1)NCCCCC1CCN(C(=O)c2ccccc2)CC1", "note": "[Daporinad] (0.1 nM)", "normalised response": 94},
      {"smiles": "O=C(O)C(=O)O.[NH-][C@@H]1CCCC[C@H]1[NH-].[Pt+2]", "note": "[Oxaliplatin] (1 nM)", "normalised response": 93.2},
      {"smiles": "CC(=O)Nc1cccc(-n2c(=O)n(C3CC3)c(=O)c3c(Nc4ccc(I)cc4F)n(C)c(=O)c(C)c32)c1", "note": "[Trametinib] (0.025 nM)", "normalised response": 95.5},
      {"smiles": "O=C(O)C1(C(=O)O)CCC1.[NH2-].[NH2-].[Pt+2]", "note": "[Carboplatin] (1 nM)", "normalised response": 103},
      {"smiles": "C[C@H]1C[C@@H]2[C@H]([C@@H](O)C[C@@]3(C)[C@H]2CC[C@]3(O)C(=O)CO)[C@@]2(C)C=CC(=O)C=C12", "note": "[Methylprednisolone] (1 nM)", "normalised response": 99.1},
      {"smiles": "CC[C@H](C)C(=O)O[C@H]1C[C@H](O)C=C2C=C[C@H](C)[C@H](CC[C@@H](O)C[C@@H](O)CC(=O)O)[C@H]21", "note": "[Pravastatin] (10 nM)", "normalised response": 97.3},
      {"smiles": "O=C(Cc1ccc(-c2ccc(OCCN3CCOCC3)cc2)cn1)NCc1ccccc1", "note": "[KX2-391] (10 nM)", "normalised response": 104}
    ]},
    {"test_system": "MFM-223", "assay": "normalised response (% of control), CellTiter-Glo; higher = more viable cells (100 = DMSO, 0 = benzethonium chloride kill control)", "details": "incubation time: 72 h", "summary_of_the_method": "as §1", "units": {"normalised response": "%"}, "values": [
      {"smiles": "Nc1nc(F)nc2c1ncn2[C@@H]1O[C@H](CO)[C@@H](O)[C@@H]1O", "note": "[Fludarabine] (1 nM)", "normalised response": 109},
      {"smiles": "CC[C@@H]1C(=O)N(C)c2cnc(Nc3ccc(C(=O)NC4CCN(C)CC4)cc3OC)nc2N1C1CCCC1", "note": "[BI 2536] (0.1 nM)", "normalised response": 106},
      {"smiles": "Nc1ncn([C@H]2C[C@H](O)[C@@H](CO)O2)c(=O)n1", "note": "[Decitabine] (1 nM)", "normalised response": 96.4},
      {"smiles": "CC1=C(/C=C/C(C)=C/C=C/C(C)=C/C(=O)O)C(C)(C)CCC1", "note": "[Tretinoin] (1 nM)", "normalised response": 99.2},
      {"smiles": "COc1cc([C@@H]2c3cc4c(cc3[C@@H](O[C@@H]3O[C@@H]5CO[C@@H](c6cccs6)O[C@H]5[C@H](O)[C@H]3O)[C@H]3COC(=O)[C@H]23)OCO4)cc(OC)c1O", "note": "[Teniposide] (1 nM)", "normalised response": 96},
      {"smiles": "CCN(CC)CCCC(C)Nc1c2ccc(Cl)cc2nc2ccc(OC)cc12", "note": "(stereo not drawn) [Mepacrine] (50 nM)", "normalised response": 98.7},
      {"smiles": "O=C(/C=C/c1cccnc1)NCCCCC1CCN(C(=O)c2ccccc2)CC1", "note": "[Daporinad] (1 nM)", "normalised response": 87.2},
      {"smiles": "Nc1nc2[nH]cc(CCc3ccc(C(=O)N[C@@H](CCC(=O)O)C(=O)O)cc3)c2c(=O)[nH]1", "note": "[Pemetrexed] (10 nM)", "normalised response": 94.9},
      {"smiles": "CC[C@H](Nc1ncnc2[nH]cnc12)c1nc2cccc(F)c2c(=O)n1-c1ccccc1", "note": "[GS-1101] (10 nM)", "normalised response": 87.8},
      {"smiles": "Cc1cnc(NC(=O)Nc2cc(Br)c(C)cc2OC[C@@H]2CNCCO2)cn1", "note": "[Rabusertib] (0.1 nM)", "normalised response": 103},
      {"smiles": "CNC(=O)c1cc(Oc2ccc(NC(=O)Nc3cc(C(C)(C)C)nn3-c3ccc4ncccc4c3)c(F)c2)ccn1", "note": "[Rebastinib] (1 nM)", "normalised response": 100},
      {"smiles": "CCc1cncnc1N1CCN(Cc2nc3ccc(C(F)(F)F)cc3[nH]2)CC1", "note": "(1 nM)", "normalised response": 103},
      {"smiles": "O=C(Cc1ccc(-c2ccc(OCCN3CCOCC3)cc2)cn1)NCc1ccccc1", "note": "[KX2-391] (1 nM)", "normalised response": 106},
      {"smiles": "O=C(/C=C/c1cccnc1)NCCCCC1CCN(C(=O)c2ccccc2)CC1", "note": "[Daporinad] (0.1 nM)", "normalised response": 109},
      {"smiles": "O=C(O)C(=O)O.[NH-][C@@H]1CCCC[C@H]1[NH-].[Pt+2]", "note": "[Oxaliplatin] (1 nM)", "normalised response": 91.2},
      {"smiles": "CC(=O)Nc1cccc(-n2c(=O)n(C3CC3)c(=O)c3c(Nc4ccc(I)cc4F)n(C)c(=O)c(C)c32)c1", "note": "[Trametinib] (0.025 nM)", "normalised response": 100},
      {"smiles": "O=C(O)C1(C(=O)O)CCC1.[NH2-].[NH2-].[Pt+2]", "note": "[Carboplatin] (1 nM)", "normalised response": 98.8},
      {"smiles": "C[C@H]1C[C@@H]2[C@H]([C@@H](O)C[C@@]3(C)[C@H]2CC[C@]3(O)C(=O)CO)[C@@]2(C)C=CC(=O)C=C12", "note": "[Methylprednisolone] (1 nM)", "normalised response": 103},
      {"smiles": "CC[C@H](C)C(=O)O[C@H]1C[C@H](O)C=C2C=C[C@H](C)[C@H](CC[C@@H](O)C[C@@H](O)CC(=O)O)[C@H]21", "note": "[Pravastatin] (10 nM)", "normalised response": 92.3},
      {"smiles": "O=C(Cc1ccc(-c2ccc(OCCN3CCOCC3)cc2)cn1)NCc1ccccc1", "note": "[KX2-391] (10 nM)", "normalised response": 106}
    ]}
  ]
}
